According to patent US11208412B2 (DAEGU-GYEONGBUK MEDICAL INNOVATION FOUNDATION, priority 2017, dated 2021):

Legend:
Assay in all cases: Kinase selectivity, DiscoverX scanMAX Kinase assay panel (% control)
Assay type in all cases: binding
[1] = biological target: T1, kinases of the scanMAX Kinase assay panel (Homo sapiens, UniProt Q9BVS4); settings: kinase RIOK2; 1 uM in DMSO
T1 construct: purchased DiscoverX Co. (contract measurement) scanMAX Kinase assay panel
In short: (§1)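 Single-point screen, 1 uM cpd in DMSO. % ctrl = (cpd − pos ctrl)/(neg ctrl − pos ctrl)×100; pos ctrl = 0%, DMSO neg ctrl = 100%. Hit cutoff <35%.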

[2] = biological target: T2, kinases of the scanMAX Kinase assay panel (Homo sapiens, UniProt Q07912); settings: kinase TNK2; 1 uM in DMSO
T2 construct: purchased DiscoverX Co. (contract measurement) scanMAX Kinase assay panel
T2 sequence (Q07912 whole entry): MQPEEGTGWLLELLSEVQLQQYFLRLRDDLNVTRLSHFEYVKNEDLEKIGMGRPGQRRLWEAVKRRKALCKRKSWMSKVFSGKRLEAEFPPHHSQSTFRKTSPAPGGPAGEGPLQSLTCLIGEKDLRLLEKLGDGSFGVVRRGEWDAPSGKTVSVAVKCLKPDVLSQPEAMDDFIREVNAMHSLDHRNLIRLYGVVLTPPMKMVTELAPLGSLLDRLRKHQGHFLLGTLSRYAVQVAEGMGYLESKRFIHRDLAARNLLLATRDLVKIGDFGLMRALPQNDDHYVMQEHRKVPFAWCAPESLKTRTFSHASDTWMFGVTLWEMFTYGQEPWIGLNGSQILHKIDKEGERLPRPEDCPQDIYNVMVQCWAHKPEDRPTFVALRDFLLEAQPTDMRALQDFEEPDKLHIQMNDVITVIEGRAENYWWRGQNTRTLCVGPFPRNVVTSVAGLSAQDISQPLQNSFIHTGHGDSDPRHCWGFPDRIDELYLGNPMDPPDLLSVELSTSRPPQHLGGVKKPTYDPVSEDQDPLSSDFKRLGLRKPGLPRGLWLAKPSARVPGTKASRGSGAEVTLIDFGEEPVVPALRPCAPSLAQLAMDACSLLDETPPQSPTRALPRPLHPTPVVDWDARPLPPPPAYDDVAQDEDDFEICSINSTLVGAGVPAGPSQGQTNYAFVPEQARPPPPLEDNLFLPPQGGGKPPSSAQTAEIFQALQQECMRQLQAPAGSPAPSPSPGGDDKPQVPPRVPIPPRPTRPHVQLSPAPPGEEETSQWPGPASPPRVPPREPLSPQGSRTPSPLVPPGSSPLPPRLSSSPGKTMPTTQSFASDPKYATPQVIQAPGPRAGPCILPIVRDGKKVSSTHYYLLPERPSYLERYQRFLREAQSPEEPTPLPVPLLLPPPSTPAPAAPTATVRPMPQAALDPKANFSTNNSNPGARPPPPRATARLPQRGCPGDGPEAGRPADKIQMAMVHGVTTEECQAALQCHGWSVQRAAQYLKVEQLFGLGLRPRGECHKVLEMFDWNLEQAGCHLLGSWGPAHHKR
In short: as §1

[3] = biological target: T3, kinases of the scanMAX Kinase assay panel (Homo sapiens, UniProt Q59H18); settings: kinase TNNI3K; 1 uM in DMSO
T3 construct: purchased DiscoverX Co. (contract measurement) scanMAX Kinase assay panel
T3 sequence (Q59H18 1-835): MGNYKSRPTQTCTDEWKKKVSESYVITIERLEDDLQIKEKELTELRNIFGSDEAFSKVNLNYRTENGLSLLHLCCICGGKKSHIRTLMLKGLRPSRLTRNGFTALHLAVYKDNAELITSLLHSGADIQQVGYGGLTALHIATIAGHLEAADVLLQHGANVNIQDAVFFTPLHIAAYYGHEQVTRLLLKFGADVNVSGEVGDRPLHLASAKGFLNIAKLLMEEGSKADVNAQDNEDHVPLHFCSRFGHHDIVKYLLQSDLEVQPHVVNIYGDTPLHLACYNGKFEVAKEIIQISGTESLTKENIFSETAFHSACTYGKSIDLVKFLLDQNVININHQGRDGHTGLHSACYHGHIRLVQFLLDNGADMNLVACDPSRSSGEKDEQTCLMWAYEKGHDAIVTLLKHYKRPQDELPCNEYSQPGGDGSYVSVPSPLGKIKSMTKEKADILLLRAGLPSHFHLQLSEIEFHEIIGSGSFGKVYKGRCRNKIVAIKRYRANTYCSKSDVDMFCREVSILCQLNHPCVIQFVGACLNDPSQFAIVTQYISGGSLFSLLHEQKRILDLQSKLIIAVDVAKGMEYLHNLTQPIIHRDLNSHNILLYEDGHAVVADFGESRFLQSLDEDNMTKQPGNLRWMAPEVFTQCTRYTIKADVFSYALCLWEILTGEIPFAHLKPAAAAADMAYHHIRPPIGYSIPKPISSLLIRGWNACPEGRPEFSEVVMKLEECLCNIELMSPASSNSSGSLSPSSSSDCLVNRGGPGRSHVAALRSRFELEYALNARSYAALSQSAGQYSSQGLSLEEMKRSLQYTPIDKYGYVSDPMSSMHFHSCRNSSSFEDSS
In short: as §1

[4] = biological target: T4, kinases of the scanMAX Kinase assay panel (Homo sapiens, UniProt P29320); settings: EPHA3; 1 uM
T4 construct: purchased DiscoverX Co. (contract measurement) scanMAX Kinase assay panel
T4 sequence (P29320 21-983): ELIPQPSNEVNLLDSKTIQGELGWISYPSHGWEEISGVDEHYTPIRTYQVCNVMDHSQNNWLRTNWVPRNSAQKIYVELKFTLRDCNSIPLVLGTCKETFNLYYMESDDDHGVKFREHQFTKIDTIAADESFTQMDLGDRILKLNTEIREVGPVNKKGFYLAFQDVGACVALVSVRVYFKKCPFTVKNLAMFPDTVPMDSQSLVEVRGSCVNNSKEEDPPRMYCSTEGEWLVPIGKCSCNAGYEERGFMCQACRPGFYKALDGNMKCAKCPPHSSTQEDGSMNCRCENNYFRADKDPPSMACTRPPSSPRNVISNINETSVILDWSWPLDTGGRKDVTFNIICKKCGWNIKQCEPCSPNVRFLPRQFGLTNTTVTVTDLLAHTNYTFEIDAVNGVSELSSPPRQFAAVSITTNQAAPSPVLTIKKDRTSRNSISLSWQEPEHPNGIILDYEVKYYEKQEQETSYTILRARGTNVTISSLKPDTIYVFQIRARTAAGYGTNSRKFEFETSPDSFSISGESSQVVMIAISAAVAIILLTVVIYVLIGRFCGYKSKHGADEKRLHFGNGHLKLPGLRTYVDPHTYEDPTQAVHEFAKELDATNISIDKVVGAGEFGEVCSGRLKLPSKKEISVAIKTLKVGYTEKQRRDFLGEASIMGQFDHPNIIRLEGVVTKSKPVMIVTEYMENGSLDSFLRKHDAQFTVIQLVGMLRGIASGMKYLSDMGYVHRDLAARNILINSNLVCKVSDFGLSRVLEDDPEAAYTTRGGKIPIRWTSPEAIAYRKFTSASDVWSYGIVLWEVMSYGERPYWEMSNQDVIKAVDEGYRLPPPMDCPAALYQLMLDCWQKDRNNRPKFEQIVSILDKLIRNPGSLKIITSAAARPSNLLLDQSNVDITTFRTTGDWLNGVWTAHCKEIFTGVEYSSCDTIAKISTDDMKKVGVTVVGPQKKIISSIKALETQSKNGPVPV
In short: as §1

T1 sequence (Q9BVS4 whole entry): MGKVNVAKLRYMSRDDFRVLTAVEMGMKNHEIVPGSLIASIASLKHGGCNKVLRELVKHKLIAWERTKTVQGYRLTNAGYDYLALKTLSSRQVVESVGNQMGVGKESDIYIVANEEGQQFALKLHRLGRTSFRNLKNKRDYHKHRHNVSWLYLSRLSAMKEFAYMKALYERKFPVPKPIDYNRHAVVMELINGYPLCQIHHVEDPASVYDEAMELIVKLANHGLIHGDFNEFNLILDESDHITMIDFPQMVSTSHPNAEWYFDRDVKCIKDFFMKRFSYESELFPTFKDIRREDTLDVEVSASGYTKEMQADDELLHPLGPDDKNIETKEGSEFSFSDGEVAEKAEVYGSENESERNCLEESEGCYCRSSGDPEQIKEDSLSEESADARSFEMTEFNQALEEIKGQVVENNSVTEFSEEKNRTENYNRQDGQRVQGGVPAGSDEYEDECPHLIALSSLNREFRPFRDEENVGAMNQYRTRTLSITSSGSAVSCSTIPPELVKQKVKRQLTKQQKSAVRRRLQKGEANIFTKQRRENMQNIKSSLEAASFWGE

CC1(Nc2nc(Nc3cnn([C@H]4CCN(C5COC5)C[C@@H]4F)c3Cl)nc3[nH]cc(C#N)c23)CC1 [Example 52, 2-((5-chloro-1-((3S,4S)-3-fluoro-1-(oxetane-3-yl)piperidine-4-yl)-1H-pyrazole-4-yl)amino)((1-methylcyclopropyl)amino)-7H-pyrrolo[2,3-d]pyrimidine-5-carbonitrile]
remaining binding at 1 µM [1]: 1.1% | remaining binding at 1 µM [2]: 0.9% | remaining binding at 1 µM [3]: 93% | remaining binding at 1 µM [4]: 18%

CNc1nc(Nc2ccc(C(=O)N3CCOCC3)cc2OC)nc2[nH]cc(C#N)c12 [Example 1, 2-((2-methoxy-4-(morpholine-4-carbonyl)phenyl)amino)-4-(methylamino)-7H-pyrrolo[2,3-d]pyrimidine-5-carbonitrile]
remaining binding at 1 µM [1]: 47% | remaining binding at 1 µM [2]: 82% | remaining binding at 1 µM [3]: 99% | remaining binding at 1 µM [4]: 92%

CCNc1nc(Nc2ccc(C(=O)N3CCC(N4CCOCC4)CC3)cc2OC)nc2[nH]cc(C(F)(F)F)c12 [Example 104, (4-((4-(ethylamino)-5-(trifluoromethyl)-7H-pyrrolo[2,3-d]pyrimidine-2-yl)amino)-3-methoxyphenyl)(4-morpholinopiperidine-1-yl)methanone]
remaining binding at 1 µM [1]: 75% | remaining binding at 1 µM [2]: 31% | remaining binding at 1 µM [3]: 100% | remaining binding at 1 µM [4]: 92%
